# Patent US20190008918A1, “IMMUNOMODULATION THERAPIES FOR CANCER” (BIOXCEL CORPORATION, priority 2016, published 2019)
# Assays:
# [1] = tested on: MC38 mouse colon cancer cell line; experiment: Antitumor efficacy in MC38 mouse model of colon adenocarcinoma (tumor volume, % TGI); type: in vivo, mouse (C57BL/6); conditions: day 10, Mifamurtide 30 μg biw and/or PD-1 antagonist 5 mg/kg biw
# Text: Six to seven-week-old female C57BL/6 mice (20±4 g weight) were used in the studies. Mice received food and water ad libitum. The study protocol, the procedures involving the care and use of animals were reviewed and approved by the Institutional Animal Care and Use Committee (IACUC) to ensure compliance with the regulations of the Association for Assessment and Accreditation of Laboratory Animal Care (AAALAC).
# (§1) DMEM medium (Cat. No.: 11960-044). Glutamax™ (Cat. No.: 35050061), Trypsin-EDTA (0.25%) (Cat. No.: 25200-056), Penicillin-Streptomycin (Cat. No.: 15070-063), Hanks' Balanced Salt solution (Cat. No.: 14175-095) were procured form Gibco, while Fetal Bovine Serum (FBS) Cat. No.: 004-001-1A was purchased from Biological Industries. PD-1 antagonist (Cat. No.: BE0146) was supplied by BioXcell. Stock solutions of PD-1 antagonist at 1 mg/ml were kept at 4° C. prior to use. Dosing solutions of PD-1 antagonist were prepared freshly before every administration in sterile phosphate buffered saline (pH 7.0) and maintained at 4° C. The test article Mifamurtide was procured from Sigma (SML0195) and prepared freshly as a working solution at concentration of 300 μg/ml and 100 μg/ml in sterile phosphate buffered saline (pH 7.0), to be administered at a total dose of 30 μg (corresponds to 1.5 mg/kg in mice) and 10 μg (corresponds to 0.5 mg/kg in mice) respectively, into the animal as indicated in Table 1. Luminex assay kit: MCYTOMAG-70K-32 was commercially available from Millipore, was used to analyze the cytokines and chemokines in the serum samples.
# MC38 mouse colon cancer cell line as provided by GenScript were maintained as monolayer culture in DMEM supplemented with 10% fetal bovine serum (FBS), 1% Glutamax™ and 1% Penicillin-Streptomycin at 37° C. in an atmosphere with 5% CO2. The cells were routinely sub-cultured every 2 days to maintain growth at exponential phase. The tumor cells growing in exponential growth phase were harvested by trypsinization, followed by centrifugation at 335×g relative centrifugal force (RCF) in a centrifuge. The supernatant was subsequently removed by aspiration. Cell pellet was re-suspended in approximately 10× volume of cell culture medium and counted. The cell suspension was centrifuged again and processed as above and finally re-suspended in HBSS at a density of 1×10^7 cells per ml. Cell viability was determined to be ≥95% by trypan blue staining. […]
# Tumor size and body weights were measured twice weekly.
# Tumor size was measured twice per week in 2 dimensions using a caliper (recorded up to one decimal point). Tumor volume, expressed in mm^3, was calculated using the following formula, in which “a” and “b” were the long and the short diameters of a tumor, respectively. […]
# [2] = tested on: cytokines (IFN-γ, IL-6, IL-12p40, and TNF-α) and chemokines (MCP-1 and MIP-2); experiment: Luminex analysis of serum cytokines and chemokines in MC38 tumor bearing mice; type: in vivo, mouse (C57BL/6)
# Experimental: as §1
# The immuno-modulatory effect of Mifamurtide at dose of 30 μg (b.i.w.) in the presence and absence of PD-1 antagonist at dose 5 mg/kg (b.i.w.) was also analysed. Luminex analysis was done to check the levels of cytokines (IFN-γ, IL-6, IL-12p40, and TNF-α) and chemokines (MCP-1 and MIP-2). […] Although all Mifamurtide doses and combinations were tolerated with no early death and sustained effect on body weight (data not shown).
# [3] = post (8 hours) vs pre, Mifamurtide 30 μg and/or PD-1 antagonist 5 mg/kg
# [4] = post (Day 11) vs pre, Mifamurtide 30 μg and/or PD-1 antagonist 5 mg/kg
# [5] = serum, 8 hours post dose, Mifamurtide 30 μg and/or PD-1 antagonist 5 mg/kg
# [6] = serum, Day 11, Mifamurtide 30 μg and/or PD-1 antagonist 5 mg/kg
# [7] = serum, before dosing, Mifamurtide 30 μg and/or PD-1 antagonist 5 mg/kg group
substance,measurement,setting,value
Mifamurtide,TGI % & SEM (with ref. to Mifamurtide),[1],0.00%
same,TGI % (±SEM) (with ref. to PD-1 Antagonist),[1],−39.48%
same,TGI % (±SEM) (with ref. to vehicle),[1],−8.36%
same,Tumor volume (mm^3) (±SEM),"[1]; mean, i.p.",2791.64 mm^3
same,"IFN gamma, Fold change",[2]; [3],0.0
same,"IL-6, Fold change",[2]; [3],10.85
same,"MCP-1, Fold change",[2]; [3],1.5
same,"TNF-alpha, Fold change",[2]; [3],1.6
same,"IL-12p40, Fold change",[2]; [4],1.0
same,"MIP-2, Fold change",[2]; [4],0.7
same,"IFN gamma, Post (8 hours)",[2]; [5],0 picogram/ml
same,"IL-6, Post (8 hours)",[2]; [5],14.43 picogram/ml
same,"MCP-1, Post (8 hours)",[2]; [5],23.54 picogram/ml
same,"TNF-alpha, Post (8 hours)",[2]; [5],3.33 picogram/ml
same,"IL-12p40, Post (Day 11)",[2]; [6],1.55 picogram/ml
same,"MIP-2, Post (Day 11)",[2]; [6],13.67 picogram/ml
same,"IFN gamma, Pre",[2]; [7],0 picogram/ml
same,"IL-6, Pre",[2]; [7],1.33 picogram/ml
same,"IL-12p40, Pre",[2]; [7],1.55 picogram/ml
same,"MCP-1, Pre",[2]; [7],15.9 picogram/ml
same,"MIP-2, Pre",[2]; [7],20.84 picogram/ml
same,"TNF-alpha, Pre",[2]; [7],2.13 picogram/ml
